ChEMBL document CHEMBL1147886, “Synthesis and pharmacological evaluation of novel conformationally constrained homologues of glutamic acid” (Eur J Med Chem, 2007)

Legend:
Format in all cases: cell membranes
[1] = target: Glutamate NMDA receptor; experiment: Displacement of [3H]CGP-39653 from NMDA receptor in rat cortical membrane
[2] = Displacement of [3H]AMPA from AMPA receptor in rat cortical membrane
[3] = Displacement of [3H]KA from KA receptor in rat cortical membrane

`O=C(O)[C@@H]1C[C@@]2(CN1)CC(O)=NO2` gave a Ki [1] greater than 100 µM, an IC50 [2] greater than 100 µM and an IC50 [3] greater than 100 µM.
For `O=C(O)[C@H]1C[C@]2(CN1)CC(O)=NO2`, the Ki [1] was greater than 100 µM, the IC50 [2] was greater than 100 µM and the IC50 [3] was greater than 100 µM.
In the case of `O=C(O)C1=NO[C@]2(CN[C@H](C(=O)O)C2)C1`, the Ki [1] is reported as greater than 100 µM, the IC50 [2] is reported as greater than 100 µM and the IC50 [3] is reported as greater than 100 µM.
Compound `O=C(O)C1=NO[C@]2(CN[C@@H](C(=O)O)C2)C1` has a Ki [1] greater than 100 µM, an IC50 [2] greater than 100 µM and an IC50 [3] greater than 100 µM.
For `O=C(O)[C@@H]1C[C@]2(CN1)CC(O)=NO2`, the Ki [1] was greater than 100 µM, the IC50 [2] was greater than 100 µM and the IC50 [3] was greater than 100 µM.
For `O=C(O)[C@H]1C[C@@]2(CN1)CC(O)=NO2`, the Ki [1] was greater than 100 µM, the IC50 [2] was greater than 100 µM and the IC50 [3] was greater than 100 µM.
Work on `O=C(O)C1=NO[C@@]2(CN[C@H](C(=O)O)C2)C1` yielded a Ki [1] greater than 100 µM, an IC50 [2] greater than 100 µM and an IC50 [3] greater than 100 µM.
`O=C(O)C1=NO[C@@]2(CN[C@@H](C(=O)O)C2)C1` gave a Ki [1] greater than 100 µM, an IC50 [2] greater than 100 µM and an IC50 [3] greater than 100 µM.
Compound `N[C@@H](CCCP(=O)(O)O)C(=O)O` has an IC50 [2] greater than 100 µM and an IC50 [3] greater than 100 µM.
`N[C@H](CCCP(=O)(O)O)C(=O)O` showed an IC50 [2] greater than 100 µM and an IC50 [3] greater than 100 µM.
Work on `N[C@H](C[C@H]1CC(C(=O)O)=NO1)C(=O)O` (racemic) yielded an IC50 [2] greater than 100 µM and an IC50 [3] greater than 100 µM.
`N[C@]1(C(=O)O)C[C@H]1[C@H]1CC(C(=O)O)=NO1` (racemic) showed a Ki [1] greater than 100 µM, an IC50 [2] greater than 100 µM and an IC50 [3] greater than 100 µM.
With `N[C@]1(C(=O)O)C[C@H]1[C@@H]1CC(C(=O)O)=NO1` (racemic) the Ki [1] was 34 µM, the IC50 [2] was greater than 100 µM and the IC50 [3] was greater than 100 µM.
For `N[C@]1(C(=O)O)C[C@H]1[C@H]1CC(O)=NO1` (racemic), the Ki [1] was greater than 100 µM, the IC50 [2] was greater than 100 µM and the IC50 [3] was greater than 100 µM.
With `N[C@H](C[C@@H]1CC(C(=O)O)=NO1)C(=O)O` (racemic) the IC50 [2] was greater than 100 µM and the IC50 [3] was greater than 100 µM.
`N[C@]1(C(=O)O)C[C@H]1[C@@H]1CC(O)=NO1` (racemic) gave a Ki [1] of 13 µM, an IC50 [2] greater than 100 µM and an IC50 [3] greater than 100 µM.
